In brackets after ≈: the same amount, converted by molar mass. Where two headings read alike, the source gives them in different places. Each block holds one compound with its values, some of them ahead of it.
Legend:
[1] = tested on: Staphylococcus aureus (ATCC 25923, sensitive Gram-positive strain); experiment: Determination of the antibacterial activity: MIC in liquid Mueller-Hinton medium (intrinsic antibacterial activity); type: cell-based
Protocol: (§1) The two strains used are Staphylococcus aureus (ATCC 25923, sensitive Gram-positive strain) denoted S, and S. aureus ITS-1199 (without efflux), as well as its derivative S. aureus ITS-1199B (Kaatz, G. W., Seo, S. M., Antimicrob. Agents Chemother., 1995, 39, 2650-2655) having a resistance to the fluoroquinolones due to the overexpression of the efflux pump NorA and denoted R NorA. The bacteria are cultured at 37° C. in Mueller-Hinton (MH, Bio Rad) or Luria-Bertani (LB, Difco) Medium.
The experiments described hereafter are carried out following the recommendations of the Comité de l'Antibiogramme de la Société Française de Microbiologic (http://www.sfm.asso.fr/nouv/general.php See also Courvalin, P., Goldstein, F., Philippon, A., Sirot J. L'antibiogramme, 1985, M.P.C.-Videom editor). The antibacterial activity of the molecules was determined in liquid medium using a Biomek 2000 robot (Beckman) and micro-titration plates. The final volume in each well is 200 μl. A maximum volume of 5 μl of a solution of the molecule in DMSO is added to each well containing 10^6 CFU/ml (Colony Forming Units) of bacteria in MH medium. The final concentration of the molecule to be tested must be 100 or 128 μg/ml. […] Ampicillin is used as a positive control and the same volume of DMSO as that used to introduce the molecule (generally 2 to 5 μl) as a negative control.
The experiments are repeated three times.

[2] = tested on: KB (human mouth carcinoma); experiment: In vitro cytotoxicity on KB cells; type: cell-based
Protocol: (§2) The in vitro cytotoxicity results, measured at a concentration of 10^−5 M, are described below. The cytotoxicity was measured on 5 cell lines—KB (human mouth carcinoma), MCF7 (breast carcinoma) and MCF7R (resistant strain), Vero (monkey kidney) and HCT116 (human colon tumour).

[3] = In vitro cytotoxicity on Vero cells; type: cell-based; conditions: monkey
Protocol: as §2

[4] = In vitro cytotoxicity on MCF7 cells; type: cell-based; conditions: human, MCF7 cells (breast carcinoma); concentration of 10^−5 M; read-out: Average cytotoxicity (% inhibition), MCF7 cells
Protocol: as §2

[5] = in vitro; type: cell-based; conditions: human
Protocol: as §2

[6] = In vitro cytotoxicity on HCT116 cells; type: cell-based; conditions: human, concentration of 10^−5 M, read-out: Average cytotoxicity (% inhibition), HCT116 cells
Protocol: as §2

[7] = tested on: S. aureus ITS-1199B (overexpression of the efflux pump NorA); type: cell-based, Staphylococcus aureus; conditions: resistant strain R NorA; for MIC (μg/ml) of compound in the presence of ciprofloxacin at 4 μg/ml (c/4): ciprofloxacin 4 μg/ml (c/4); for MIC (μg/ml) of compound in the presence of ciprofloxacin at 8 μg/ml (c/2): ciprofloxacin 8 μg/ml (c/2)
Protocol: as §1
The experiences are carried out as above, but using the resistant strain, and looking at the effect of the mixture of the molecule to be tested and the antibiotic to which the bacterium is resistant. Thus, the method of a series of dilutions in Mueller-Hinton medium is used, also starting from a molecule concentration of 100 or 128 μg/ml.

[8] = ATCC25923, compound alone, lowest concentration allowing no growth after 18 hours at 37° C., 10^6 CFU/ml, read-out: MIC / Antibacterial Activity (AA)
[9] = Vero cells (monkey kidney), concentration of 10^−5 M, read-out: Average cytotoxicity (% inhibition), Vero cells
[10] = HCT116 cells (human colon tumour)
[11] = ATCC25923, 18 h, read-out: MIC / Antibacterial Activity (AA)

SMILES: COc1ccc2c(C(N)CN)c[nH]c2c1 (stereo not shown) [(31)]
MIC [1, 8]: 64 mg/L (≈ 312 µM)
Average cytotoxicity (% inhibition), KB cells ([2]; human): 41%
cytotoxicity [3]: 27%

SMILES: COc1ccc2[nH]cc(C(CNC(=O)OC(C)(C)C)N(O)Cc3ccccc3)c2c1 (stereo not shown) [Compound (7)]
cytotoxicity [4]: 9.7%
Average cytotoxicity (% inhibition), KB cells ([2]; concentration of 10^−5 M): 15.6%
cytotoxicity [5]: 10.1%
cytotoxicity [3, 9]: 8%
cytotoxicity [6, 10]: 10%

SMILES: CC(C)(C)OC(=O)NCC(c1c[nH]c2ccccc12)N(O)Cc1ccccc1 (stereo not shown) [Compound (6)]
MIC (μg/ml) of compound in the presence of ciprofloxacin at 4 μg/ml (c/4) [7]: 4 µg/mL
MIC (μg/ml) of compound in the presence of ciprofloxacin at 8 μg/ml (c/2) [7]: 2 µg/mL
cytotoxicity [4]: 13.1%
Average cytotoxicity (% inhibition), KB cells ([2]; concentration of 10^−5 M): 33.7%
cytotoxicity [5]: 16%
cytotoxicity [3, 9]: 27%
cytotoxicity [6, 10]: 29%

SMILES: CC(C)(C)OC(=O)NCC(c1c[nH]c2ccccc12)N(O)C(=O)OC(C)(C)C (stereo not shown) [Compound (11)]
Average cytotoxicity (% inhibition), KB cells ([2]; concentration of 10^−5 M): 14%
cytotoxicity [3, 9]: 15%
cytotoxicity [6, 10]: 22%

SMILES: CC(C)(C)OC(=O)NCC(NO)c1c[nH]c2cc(Br)ccc12 (stereo not shown) [(22)]
MIC [1, 11]: 50 mg/L (≈ 135 µM)
Average cytotoxicity (% inhibition), KB cells ([2]; concentration of 10^−5 M): 0%
cytotoxicity [3, 9]: 22%
cytotoxicity [6, 10]: 37%

SMILES: COc1ccc2c(C(CNC(=O)OC(C)(C)C)N(O)Cc3ccccc3)c[nH]c2c1 (stereo not shown) [Compound (50), 1-[N-benzyl-N-(hydroxy)amino]-2-[N′-(tert-butoxycarbonyl)amino]-1-(6′-methoxyindol-3′-yl)ethane]
cytotoxicity [3, 9]: 42%

SMILES: CC(C)(C)OC(=O)NCC(c1c[nH]c2ccc(Br)cc12)N(O)C(=O)OC(C)(C)C (stereo not shown) [Compound (13), 1-[N-(tert-butoxycarbonyl)-N-(hydroxy)amino]-2-[N-(tert-butoxycarbonyl)]-1-(5′-bromo-3′-indolyl)ethane]
MIC [1, 11]: 50 mg/L (≈ 106 µM)

SMILES: CC(C)(C)OC(=O)NCC(NO)c1c[nH]c2ccccc12 (stereo not shown) [(46), 1-N-(hydroxy)amino-2-[N′-(tert-butoxycarbonyl)amino]-1-(indol-3′-yl)ethane]
Average cytotoxicity (% inhibition), KB cells ([2]; concentration of 10^−5 M): 31%
cytotoxicity [3, 9]: 0%
cytotoxicity [6, 10]: 39%

SMILES: COc1ccc2[nH]cc(C(C)N(O)Cc3ccccc3)c2c1 (stereo not shown) [(38)]
MIC (μg/ml) of compound in the presence of ciprofloxacin at 8 μg/ml (c/2) [7]: >8 µg/mL
Average cytotoxicity (% inhibition), KB cells ([2]; concentration of 10^−5 M): 0%
cytotoxicity [3, 9]: 5%
cytotoxicity [6, 10]: 15%

SMILES: CC(C)(C)OC(=O)NCC(c1c[nH]c2ccc(Cl)cc12)N(O)C(=O)OC(C)(C)C (stereo not shown) [Compound (12)]
MIC [1, 8]: 12.5 mg/L (≈ 29.3 µM)
MIC (μg/ml) of compound in the presence of ciprofloxacin at 4 μg/ml (c/4) [7]: 4 µg/mL

MIC [1, 8]: 25 mg/L (≈ 72.4 µM)
SMILES: CC(c1c[nH]c2ccc(Br)cc12)N(O)Cc1ccccc1 (stereo not shown) [Compound (1)]
Average cytotoxicity (% inhibition), KB cells ([2]; concentration of 10^−5 M): 50%
cytotoxicity [3, 9]: 36%
cytotoxicity [6, 10]: 28%

SMILES: Cl.Cl.NCC(NO)c1c[nH]c2cc(Br)ccc12 (stereo not shown) [(33)]
MIC [1, 8]: 6 mg/L
Average cytotoxicity (% inhibition), KB cells ([2]; concentration of 10^−5 M): 14%
cytotoxicity ([3]; concentration of 10^−5 M, read-out: Average cytotoxicity (% inhibition), Vero cells): 31%
cytotoxicity [6]: 37%

SMILES: COc1ccc(CN(O)C(CNC(=O)OC(C)(C)C)c2c[nH]c3ccc(Br)cc23)c(OC)c1 (stereo not shown) [Compound (8)]
MIC (μg/ml) of compound in the presence of ciprofloxacin at 4 μg/ml (c/4) [7]: 8 µg/mL
MIC (μg/ml) of compound in the presence of ciprofloxacin at 8 μg/ml (c/2) [7]: 8 µg/mL

SMILES: COc1ccc2[nH]cc(C(N)CNC(=O)OC(C)(C)C)c2c1 (stereo not shown) [(24), 1-amino-[2-N′-(tert-butoxycarbonyl)amino]-1-(5′-methoxy-3′-indolyl) ethane]
MIC ([1]; ATCC25923): ≤ 10 mg/L
MIC (μg/ml) of compound in the presence of ciprofloxacin at 8 μg/ml (c/2) [7]: 4 µg/mL
Average cytotoxicity (% inhibition), KB cells ([2]; concentration of 10^−5 M): 2%
cytotoxicity [3, 9]: 12%
cytotoxicity [6, 10]: 13%

SMILES: CC(C)(C)OC(=O)NCC(c1c[nH]c2cc(Br)ccc12)N(O)Cc1ccccc1 (stereo not shown) [Compound (5)]
MIC [1, 8]: 6 mg/L (≈ 13 µM)
MIC (μg/ml) of compound in the presence of ciprofloxacin at 4 μg/ml (c/4) [7]: 2 µg/mL

SMILES: COc1cc(CN(O)C(CNC(=O)OC(C)(C)C)c2c[nH]c3ccc(Br)cc23)cc(OC)c1 (stereo not shown) [(10)]
MIC (μg/ml) of compound in the presence of ciprofloxacin at 4 μg/ml (c/4) [7]: 8 µg/mL

SMILES: CC(c1c[nH]c2cc(Br)ccc12)N(O)Cc1ccccc1 (stereo not shown) [Compound (2)]
MIC [1, 11]: 100 mg/L (≈ 290 µM)

SMILES: O=[N+]([O-])c1ccc(C(c2c[nH]c3ccccc23)N(O)Cc2ccccc2)cc1 (stereo not shown) [(42)]
MIC [1, 11]: 50 mg/L (≈ 134 µM)

SMILES: COc1ccc(/C=[N+](\[O-])C(CNC(=O)OC(C)(C)C)c2c[nH]c3ccc(Br)cc23)cc1 (stereo not shown) [(20)]
MIC (μg/ml) of compound in the presence of ciprofloxacin at 4 μg/ml (c/4) [7]: 3 µg/mL
MIC (μg/ml) of compound in the presence of ciprofloxacin at 8 μg/ml (c/2) [7]: <3 µg/mL

From patent publication US8343964B2, “Indolic derivatives, their preparation processes and their uses in particular as antibacterials” (Universite Joseph Fourier, priority 2007, dated 2013)
